Experimental data from patent publication US20200199097A1, “POMALIDOMIDE DERIVATIVE AND PREPARATION METHOD THEREFOR” (NANJING NORATECH PARMACEUTICALS CO., LTD, priority 2017, published 2020).
≈ marks a conversion by molar mass, not a printed value. Structures can show the parent of a compound that is named as a salt. Where two headings read alike, the source gives them in different places. Each block holds one molecule with its values, some of them ahead of it.

Experiments:
[1] = Determination of solubility in water at room temperature by HPLC; assay type: physicochemical; conditions: saturated solubility not determined; for solubility: thermodynamic from solid, read-out: Minimum solubility in water at room temperature
Procedure: 1 mg of compound 1 was mixed with 1 mL of water, stirred at room temperature, and completely dissolved, and the supernatant was taken as a test sample solution.
50 mg of the hydrochloride or tromethamine salt of the compound was mixed with 150 μl of water, stirred at room temperature, and completely dissolved, and the supernatant was taken as a test sample solution.
In this test, the saturated solubility of the sample is not determined, but an appropriate amount of the sample is selected to determine the solubility of the sample. […] However, the solubility of pomalidomide in water is about 0.01 mg/ml, which is much lower than the solubility of the compound of the present invention or the salt thereof.

[2] = Determination of stability under different environmental conditions; assay type: physicochemical
Procedure: An appropriate amount of the sample was independently placed under different environmental conditions, and the percentage of the sample at day 0, 5, 10 or 30 was determined to evaluate the stability of the sample.

[3] = cited from earlier work

Minimum solubility in water at room temperature [1]: 1 mg/mL
Structure (SMILES): CC(C)[C@H](N)C(=O)OCN1C(=O)CCC(N2C(=O)c3cccc(N)c3C2=O)C1=O (some centres unmarked) [Compound 1]

Structure (SMILES): Nc1cccc2c1C(=O)N(C1CCC(=O)N(COP(=O)(O)O)C1=O)C2=O (centres unmarked) [Ditromethamine salt of compound 11]
percentage of the sample ([2]; Day 0): 99.9%
percentage of the sample ([2]; Day 5/40° C./60% RH/Dark): 92.8%
percentage of the sample ([2]; Day 5/60° C./75% RH/Dark): 15.6%
percentage of the sample ([2]; Day 5/Light): 99.5%
percentage of the sample ([2]; Day 5/RT/75% RH/Dark): 79.8%
percentage of the sample ([2]; Day 5/RT/92.5% RH/Dark): 78.4%
solubility [1]: > 300 mg/mL

percentage of the sample ([2]; Day 0): 97.1%
percentage of the sample ([2]; Day 10/40° C./60% RH/Dark): 96.9%
percentage of the sample ([2]; Day 10/60° C./75% RH/Dark): 96.4%
percentage of the sample ([2]; Day 10/Light): 96.7%
percentage of the sample ([2]; Day 10/RT/75% RH/Dark): 96.8%
percentage of the sample ([2]; Day 10/RT/92.5% RH/Dark): 95.5%
percentage of the sample ([2]; Day 30/40° C./60% RH/Dark): 95.1%
percentage of the sample ([2]; Day 30/60° C./75% RH/Dark): 94.7%
percentage of the sample ([2]; Day 30/Light): 95.0%
percentage of the sample ([2]; Day 30/RT/75% RH/Dark): 96.1%
percentage of the sample ([2]; Day 30/RT/92.5% RH/Dark): 93.3%
Minimum solubility in water at room temperature [1]: >300 mg/mL
Structure (SMILES): CC(C)[C@H](N)C(=O)OCN1C(=O)CCC(N2C(=O)c3cccc(N)c3C2=O)C1=O (some centres unmarked) [Hydrochloride salt of compound 1]

percentage of the sample ([2]; Day 0): 96.1%
percentage of the sample ([2]; Day 10/40° C./60% RH/Dark): 43.5%
percentage of the sample ([2]; Day 10/60° C./75% RH/Dark): 13.3%
percentage of the sample ([2]; Day 10/RT/92.5% RH/Dark): 93.3%
solubility [1]: > 300 mg/mL
Structure (SMILES): NCC(=O)OCN1C(=O)CCC(N2C(=O)c3cccc(N)c3C2=O)C1=O (centres unmarked) [Hydrochloride salt of compound 2]

solubility [1]: > 300 mg/mL
Structure (SMILES): C[C@H](N)C(=O)OCN1C(=O)CCC(N2C(=O)c3cccc(N)c3C2=O)C1=O (some centres unmarked) [Hydrochloride salt of compound 3]

solubility [1]: > 300 mg/mL
Structure (SMILES): CC(C)C[C@H](N)C(=O)OCN1C(=O)CCC(N2C(=O)c3cccc(N)c3C2=O)C1=O (some centres unmarked) [Hydrochloride salt of compound 4]

solubility [1]: > 300 mg/mL
Structure (SMILES): CC[C@H](C)[C@H](N)C(=O)OCN1C(=O)CCC(N2C(=O)c3cccc(N)c3C2=O)C1=O (some centres unmarked) [Hydrochloride salt of compound 5]

solubility [1]: > 300 mg/mL
Structure (SMILES): Nc1cccc2c1C(=O)N(C1CCC(=O)N(COC(=O)[C@@H]3CCCN3)C1=O)C2=O (some centres unmarked) [Hydrochloride salt of compound 6]

solubility [1]: > 300 mg/mL
Structure (SMILES): Nc1cccc2c1C(=O)N(C1CCC(=O)N(COC(=O)[C@@H](N)Cc3ccccc3)C1=O)C2=O (some centres unmarked) [Hydrochloride salt of compound 7]

Structure (SMILES): Nc1cccc2c1C(=O)N(C1CCC(=O)NC1=O)C2=O (centres unmarked) [Pomalidomide]
solubility ([3]; 0.1 mol/L hydrochloric acid): 0.0189 mg/mL (≈ 69.2 µM)
solubility ([3]; acetate buffer (pH 4.5)): 0.0187 mg/mL (≈ 68.4 µM)
solubility ([3]; phosphate buffer (pH 6.8)): 0.017 mg/mL (≈ 62.2 µM)
solubility ([3]; purified water): 0.0178 mg/mL (≈ 65.1 µM)
solubility of pomalidomide in water ([3]; water): about 0.01 mg/ml
